These results are taken from ChEMBL document CHEMBL3286270, “Adenosine analogue inhibitors of S-adenosylhomocysteine hydrolase” (Bioorg Med Chem Lett, 2014).

A value given as a limit tells only on which side of the number the result lay.

The target in data set [1] is T1, Adenosylhomocysteinase (Homo sapiens, UniProt P23526). The data set is described as follows: Inhibition of recombinant human AHCY using SAH as substrate assessed as formation of homocysteine after 10 mins.
Data set [2] has as its target T1, Adenosylhomocysteinase. Put plainly: Inhibition of AHCY in human SH-SY5Y cells assessed as formation of homocysteine after 48 hrs by HPLC analysis. It is filed as cell-based.
Data set [3] in a line: Half life in dog. As to conditions: in vivo. The data set is classed as ADME, organism-based, Canis lupus familiaris.
A short description of data set [4]: Oral bioavailability in dog. The data set is classed as ADME, organism-based, Canis lupus familiaris. The conditions noted are these: in vivo.
A short description of data set [5]: Plasma protein binding in human. It is filed as ADME, cell-free.
A short description of data set [6]: Clearance in dog. It is filed as ADME, organism-based, Canis lupus familiaris. The conditions noted are these: in vivo.
Data set [7] in a line: Plasma protein binding in rat. The data set is classed as ADME, cell-free.
The nature of data set [8]: Solubility of the compound at pH 7. As to conditions: buffer. It is filed as physicochemical.
The nature of data set [9]: Clearance in rat. As to conditions: in vivo. The data set is classed as ADME, organism-based.
Data set [10] in a line: Oral bioavailability in rat. The data set is classed as ADME, organism-based. The conditions noted are these: in vivo.
The nature of data set [11]: Half life in rat. The conditions noted are these: in vivo. The data set is classed as ADME, organism-based.

T1 sequence (P23526 whole entry): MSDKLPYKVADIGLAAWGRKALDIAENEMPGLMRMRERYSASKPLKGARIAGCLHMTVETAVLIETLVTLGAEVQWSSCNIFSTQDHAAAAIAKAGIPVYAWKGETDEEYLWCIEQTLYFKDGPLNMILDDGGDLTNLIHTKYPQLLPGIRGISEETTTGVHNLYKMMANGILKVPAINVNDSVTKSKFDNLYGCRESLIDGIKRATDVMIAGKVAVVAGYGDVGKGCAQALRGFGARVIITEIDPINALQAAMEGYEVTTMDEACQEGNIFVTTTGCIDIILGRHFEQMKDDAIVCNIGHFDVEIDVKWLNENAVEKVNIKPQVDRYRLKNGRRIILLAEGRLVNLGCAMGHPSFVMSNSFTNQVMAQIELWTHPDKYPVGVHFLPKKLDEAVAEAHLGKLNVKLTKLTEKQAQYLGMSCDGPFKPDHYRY

On to `Nc1ncnc2c1ncn2[C@@H]1C=C[C@@H](O)[C@H]1O`, for which the figures for the IC50 in data set [1] and in data set [2] were 4120 nM and 877 nM, respectively.
The like results for `Nc1ncnc2c1ncn2[C@@H]1CC[C@@H](O)[C@H]1O` were, in that order, 55 nM and 1.5 nM.
As for `Nc1ncc(F)c2c1ncn2[C@@H]1C[C@@H](O)[C@@H](O)[C@H]1O`, the half-maximal inhibitory concentration (IC50) (in general, the concentration at which inhibition is half-maximal) in [1] was above 10000 nM; in data set [2] it was 878 nM.
Taken in the same sequence, the figures for `Nc1nccn2c([C@@H]3CC[C@@H](O)[C@H]3O)cnc12` were 250 nM and 1.5 nM.
Taken in the same sequence, the figures for `Nc1ncnc2c1nc(F)n2[C@@H]1CC[C@@H](O)[C@H]1O` were above 10000 nM and above 10000 nM.
In the case of `Nc1ncnc2c1nc(Cl)n2[C@@H]1CC[C@@H](O)[C@H]1O`, the IC50 in data set [1] was above 10000 nM; in data set [2] it was 2100 nM.
Taken in the same sequence, the figures for `Nc1ncnc2c1nc(Br)n2[C@@H]1CC[C@@H](O)[C@H]1O` were above 10000 nM and above 10000 nM.
Taken in the same sequence, the figures for `Nc1nc(F)nc2c1ncn2[C@@H]1CC[C@@H](O)[C@H]1O` were 2120 nM and 98 nM.
For the compound `Nc1nc(F)cc2c1ncn2[C@@H]1CC[C@@H](O)[C@H]1O`, the IC50 in data set [1] turned out to be 4830 nM.
For the compound `Nc1ncc(F)c2c1ncn2[C@@H]1CC[C@@H](O)[C@H]1O`, the IC50 amounted to 40 nM in data set [1] and 1.3 nM in data set [2]. Besides, the half-life (as a rule, how long it takes for the measured level to halve) was 3.6 h in [3] and 0.9 h in [11]. Moreover, the bioavailability (in general, dose-corrected exposure relative to a reference, in per cent) in data set [4] was above 99%; in [10], 86%. The PPB in [5] and in data set [7] was below 0.1% each time. Moreover, the clearance (usually a measure of how efficiently the substance is removed, as volume per time) in data set [6] was 9.6 mL/min/kg; in data set [9], 21 mL/min/kg. The solubility in [8] was above 200 uM/ml.
For the compound `Nc1ncc(Cl)c2c1ncn2[C@@H]1CC[C@@H](O)[C@H]1O`, the figures for the IC50 in [1] and in [2] were 16 nM and 2.2 nM, respectively.
Take `Cc1cnc(N)c2ncn([C@@H]3CC[C@@H](O)[C@H]3O)c12`: the half-inhibitory concentration (IC50) is 236 nM in data set [1] and 36 nM in data set [2].
On to `Nc1nc(F)c(F)c2c1ncn2[C@@H]1CC[C@@H](O)[C@H]1O`, for which the values for the IC50 in [1] and in data set [2] were 3640 nM and 189 nM, respectively.
Taken in the same sequence, the figures for `Nc1ncc(F)c2c1ncn2[C@@H]1C[C@@H](F)[C@@H](O)[C@H]1O` were above 10000 nM and 672 nM.
Taken in the same sequence, the figures for `Nc1ncc(F)c2c1ncn2[C@@H]1C[C@H](F)[C@@H](O)[C@H]1O` were 269 nM and 41 nM.
`Nc1ncc(F)c2c1ncn2[C@@H]1C[C@H](O)[C@@H](O)[C@H]1O`: the results for the concentration for half-maximal inhibition (IC50) in data set [1] and in data set [2] were 24 nM and 9.4 nM, respectively.
Regarding `C[C@H]1C[C@@H](n2cnc3c(N)ncc(F)c32)[C@H](O)[C@@H]1O`, the IC50 in data set [1] was determined as 1220 nM.
The same measure, in the same setting: next, `Nc1ncc(F)c2c1ncn2[C@@H]1C=C[C@@H](O)[C@H]1O`: 9690 nM.
With `Nc1ncc(F)c2c1ncn2[C@H]1[C@H](O)[C@H](O)[C@@H]2C[C@@H]21`, the IC50 in data set [1] was above 10000 nM; in data set [2], 1960 nM.
As to `Nc1ncc(F)c2c1ncn2[C@@H]1C(F)=C[C@@H](O)[C@H]1O`, in [1], the IC50 turned out to be 976 nM.
Regarding `Nc1ncnc2c1ncn2[C@@H]1C=C(CCl)[C@@H](O)[C@H]1O`, the values for the IC50 in data set [1] and in [2] were 195 nM and 939 nM, respectively.
Taken in the same sequence, the figures for `Nc1ncc(F)c2c1ncn2[C@@H]1C(F)C[C@@H](O)[C@H]1O` (mixture of isomers) were 455 nM and 2.7 nM.
In the case of `Nc1ncnc2c1ncn2[C@@H]1C=C(CO)[C@@H](O)[C@H]1O` [NEOPLANOCIN A], the results for the IC50 in [1] and in data set [2] were 1.5 nM and 10 nM, respectively.
